How the values were obtained:
rat = experiment: Rotorod test (sedative/hypnotic activity and duration of action); assay type: in vivo; conditions: for Number of animals passing the rotorod test at 240 minutes: given for compounds with duration of action >240 minutes; for TD50: Rattus norvegicus, 1 min, read-out: RR TD50 po; for Duration of action: at lowest dose where all animals failed the rotorod test, time until all animals pass again
Description: (§1) Table I below compares the in vitro potencies [ability to inhibit the binding of [^35S]-tert-butylbicyclophosphorothionate (TBPS)], rotorod TD50's (dose at which half of animals tested fail to stay on a rotating rod for 1 minute) and the length of time before all animals tested are able to pass rotorod test (duration of action) of closely structurally related pairs of 3β-methyl and 3β-methoxymethyl steroids. These methods for measuring in vitro and in vivo activity of compounds of the invention are fully described in U.S. Pat. No. 5,232,917. The TBPS assay gives the in vitro potency of compounds whereas the rotorod assay estimates the sedative/hypnotic activity of compounds. Since the duration of action of a compound is dependent on the dose and will be prolonged at higher doses, the duration of action was measured at the lowest dose where all of the animals failed the rotorod test. For compounds with duration of action >240 minutes, the number of animals passing the rotorod test at 240 minutes is given in parentheses. In each pair, the […] steroid has a biological duration action of greater than 240 minutes, while in each of the corresponding 3β-methoxymethyl steroids the duration of action is reduced to 180 minutes or less. […] Thus, specific 3β-methoxymethyl-substituted neuroactive steroids gave unique and unexpected pharmacokinetic profiles, making them especially useful as sedative/hypnotic and anesthetic agents.

[1] = molecular target: [35S]-tert-butylbicyclophosphorothionate (TBPS) binding; experiment: Inhibition of [35S]-TBPS binding (in vitro potency); parameters: species or system rat; conditions: dose of steroid inhibiting 50% of specific binding of [35S]-TBPS
Description: as §1

[2] = po, po, dose at which half of animals fail to stay on a rotating rod for 1 minute

## CC1(O)CCC2(C)C(CCC3C2CCC2(C)C(C(=O)Cn4ncnn4)CCC32)C1 (stereo not drawn) [3α-Hydroxy-3β-methyl-21-(2′-tetrazolyl)-5α-pregnan-20-one, reference compound]
rat
  Number of animals passing the rotorod test at 240 minutes: (0/8
  Duration of action: >240 min
rat; [2]
  TD50: 4.5 mg/kg
[1]
  IC50: 44 nM

## COCC1(O)CCC2(C)C(CCC3C2CCC2(C)C(C(=O)CSc4nnc(N)s4)CCC32)C1 (stereo not drawn) [21-(5′-Amino-[1,3,4]-thiadiazol-2-ylthio)-3 α-hydroxy-3β-methoxymethyl-5α-pregnan-20-one]
rat; [2]
  TD50: 40 mg/kg
rat
  Duration of action: <90 min
other
  melting point: 169 to 172 °C
[1]
  IC50: 48 nM

## COCC1(O)CCC2(C)C(CCC3C2CCC2(C)C(C(=O)Cn4ccnc4)CCC32)C1 (stereo not drawn) [3α-Hydroxy-21-(1′-imidazolyl)-3β-methoxymethyl-5β-pregnan-20] [3α-Hydroxy-21-(1′-imidazolyl)-3β-methoxymethyl-5β-pregnan-20-one]
rat
  Duration of action: <180 min
[1]
  IC50: 174 nM

## COCC1(O)CCC2(C)C(CCC3C2CCC2(C)C(C(=O)COc4ccc5c(ccc[n+]5[O-])c4)CCC32)C1 (stereo not drawn) [3α-Hydroxy-3β-methoxymethyl-21-(quinolin-6-yloxy)-5α-pregnan-20-one, N-oxide]
rat; [2]
  TD50: 29 mg/kg
rat
  Duration of action: 84 min
[1]
  IC50: 25 nM

## COCC1(O)CCC2(C)C(CCC3C2CCC2(C)C(C(=O)Cn4ccnc4)CCC32)C1 (stereo not drawn) [3α-Hydroxy-21-(1′-imidazolyl)-3β-methoxymethyl-5α-pregnan-20] [3α-Hydroxy-21-(1′-imidazolyl)-3β-methoxymethyl-5α-pregnan-20-one]
rat
  Duration of action: 140 min
rat; po, dose at which half of animals fail to stay on a rotating rod for 1 minute
  RR TD50 po: 28 mg/kg
[1]
  IC50: 138 nM

## COCC1(O)CCC2(C)C(CCC3C2CCC2(C)C(C(=O)Cn4ncnn4)CCC32)C1 (stereo not drawn) [3α-Hydroxy-3β-methoxymethyl-21-(2′-tetrazolyl)-5α-pregnan-20-one]
rat; [2]
  TD50: 35 mg/kg
rat
  Duration of action: 120 min
[1]
  IC50: 24 nM

## COCC1(O)CCC2(C)C(CCC3C2CCC2(C)C(C(=O)Cn4ccnc4)CCC32)C1 (stereo not drawn) [3α-Hydroxy-21-(1′-imidazolyl)-3β-methoxymethyl-5β-pregnan-20-one]
rat; [2]
  TD50: 30 mg/kg

## CC1(O)CCC2(C)C(CCC3C2CCC2(C)C(C(=O)Cn4ccnc4)CCC32)C1 (stereo not drawn) [3α-Hydroxy-21-(1′-imidazolyl)-3β-methyl-5α-pregnan-20-one, reference compound]
rat
  Number of animals passing the rotorod test at 240 minutes: (3/8
  Duration of action: >240 min
rat; [2]
  TD50: 31 mg/kg
[1]
  IC50: 97 nM

## CC1(O)CCC2(C)C(CCC3C2CCC2(C)C(C(=O)COc4ccc5c(ccc[n+]5[O-])c4)CCC32)C1 (stereo not drawn) [3α-Hydroxy-3β-methyl-21-(quinolin-6-yloxy)-5α-pregnan-20-one, N-oxide, reference compound]
rat
  Number of animals passing the rotorod test at 240 minutes: (1/8
  Duration of action: >240 min
rat; [2]
  TD50: 15 mg/kg
[1]
  IC50: 46 nM

— patent publication US20040034002A1, “3Alpha-hydroxy-3beta-methoxymethyl-substituted steroids and the use thereof” (Euro-Celtique S.A., priority 1999, published 2004)
